Laboratory results from publication PMC10460728 (Journal of Pharmacokinetics and Pharmacodynamics, 2023).
pEC50, pIC50, pKi: −log10 of the molar value.

Experiments:
[1] = plasma; ref FDA CP review; cited from earlier work
[2] = target: CYP3A5 (Homo sapiens, UniProt P20815); assay: In vitro CYP3A5 inhibition (internal data); type: biochemical
[3] = clinical; settings: human, plasma, po, 160 mg; for Cmax: observed, mean
[4] = target: P-gp (human MDR1) (Homo sapiens, UniProt P08183); assay: In vitro P-gp inhibition: 3H-digoxin permeation across control and MDR1-expressing LLC-PK1 cell monolayers
P-gp (human MDR1), sequence (P08183 whole entry): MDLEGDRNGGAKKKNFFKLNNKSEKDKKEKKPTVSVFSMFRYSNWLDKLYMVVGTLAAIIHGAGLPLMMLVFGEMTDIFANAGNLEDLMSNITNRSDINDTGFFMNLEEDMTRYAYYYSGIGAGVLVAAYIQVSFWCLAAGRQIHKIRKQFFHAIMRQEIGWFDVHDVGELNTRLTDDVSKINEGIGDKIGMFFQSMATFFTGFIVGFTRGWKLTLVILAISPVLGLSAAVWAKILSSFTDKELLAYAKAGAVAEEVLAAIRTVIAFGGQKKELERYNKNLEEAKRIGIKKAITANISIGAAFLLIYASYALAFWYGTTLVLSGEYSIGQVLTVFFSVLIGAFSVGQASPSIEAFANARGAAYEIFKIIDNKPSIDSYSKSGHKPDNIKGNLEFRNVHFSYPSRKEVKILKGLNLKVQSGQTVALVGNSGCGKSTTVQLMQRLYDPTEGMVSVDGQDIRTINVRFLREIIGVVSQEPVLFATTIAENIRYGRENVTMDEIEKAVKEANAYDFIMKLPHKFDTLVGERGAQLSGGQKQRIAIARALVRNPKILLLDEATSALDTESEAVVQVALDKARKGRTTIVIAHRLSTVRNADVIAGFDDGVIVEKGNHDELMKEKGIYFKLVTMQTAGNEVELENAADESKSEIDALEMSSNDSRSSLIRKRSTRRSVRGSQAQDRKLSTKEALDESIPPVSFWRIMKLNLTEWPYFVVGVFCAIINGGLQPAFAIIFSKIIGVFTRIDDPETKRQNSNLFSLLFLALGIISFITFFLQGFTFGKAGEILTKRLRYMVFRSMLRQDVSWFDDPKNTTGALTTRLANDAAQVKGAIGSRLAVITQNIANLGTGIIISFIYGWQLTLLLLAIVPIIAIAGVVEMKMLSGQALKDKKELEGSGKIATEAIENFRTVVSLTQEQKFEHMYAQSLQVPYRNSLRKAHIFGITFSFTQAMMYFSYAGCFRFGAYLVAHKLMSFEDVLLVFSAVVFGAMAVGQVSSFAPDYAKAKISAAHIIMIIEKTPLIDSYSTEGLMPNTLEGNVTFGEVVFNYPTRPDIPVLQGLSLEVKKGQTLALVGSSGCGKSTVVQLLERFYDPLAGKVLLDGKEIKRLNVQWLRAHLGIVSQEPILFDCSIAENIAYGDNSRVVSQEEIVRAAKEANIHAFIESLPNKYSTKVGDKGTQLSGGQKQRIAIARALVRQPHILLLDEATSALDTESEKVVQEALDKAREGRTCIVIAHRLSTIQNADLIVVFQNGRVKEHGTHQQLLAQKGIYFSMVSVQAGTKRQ
Procedure: MDR1-expressing cells (porcine kidney epithelial LLC-PK1 cells transfected with human MDR1 cDNA) was used. The MDR1-expressing cells were seeded at a density of 4 × 10^4 cells/insert in plates and were incubated in a CO2 incubator (37 °C, CO2: 5%) for 7 to 9 days to prepare cell monolayers. […] After incubation for 4 h at 37 °C, a 70-μL aliquot of the incubation solutions was collected as the analytical sample from the opposite compartment of that spiked with test solutions (receiver compartment). The collected samples were immediately combined with 10 mL of scintillator, and the radioactivity was counted using the LSC. Permeability coefficient (Papp) of ^3H-digoxin was calculated using the following equation: Pappcm/sec=[dQ/dt]/A/C0 where dQ/dt is the transport rate (dpm/sec); A is the membrane area (cm^2); C0 is the initial concentration (dpm/mL). The ratio of permeability coefficient (Papp ratio) was calculated from the basal to apical Papp and apical to basal Papp according to the following equation: Pappratio=BasaltoapicalPapp/ApicaltobasalPapp
Furthermore, the ratios of the Papp ratios in MDR1-expressing cells to the Papp ratios in control cells were calculated as corrected Papp ratio according to the following equation: CorrectedPappratio=PappratiooftheMDR1expressingcells/Pappratioofthecontrolcells
The % of control was calculated from the corrected Papp ratio according to the following equation: \% \,of\,control=CorrectedPappratio\,in\,the\,absence\,or\,presence\,of\,inhibitors/CorrectedPappratio\,in\,the\,absence\,of\,inhibitors×100

[5] = cited from earlier work
[6] = PBPK models of enzalutamide and M2 (Simcyp)
From the text: Many of the physicochemical properties and plasma protein binding data were obtained internally and also referenced from FDA documents, which are available from the FDA website. […] Accordingly, the solution formulation option in the Simcyp model was used.
The PBPK models of CYP2C8 inhibitor (gemfibrozil), CYP3A4 substrate (midazolam), and P-gp substrate (digoxin) were used from the Simcyp software library with models that were verified for their intended purpose.

[7] = tested on: CYP3A4; settings: calibrated with positive control rifampicin; Simcyp input
Procedure: (§1) Hepatocytes were cultured according to previously described methods [8]. […] Single-stranded cDNA was prepared from RNA with the RT Master Mix using the AB 7900HT Fast Real Time PCR System thermocycling program. Quantitative RT-PCR was carried out in triplicate. Relative quantification measures the change in mRNA expression in a test sample relative to that in a control sample (e.g., DMSO). This method assumes that the efficiency of the target amplification and the efficiency of the endogenous control amplification are approximately equal.
(§2) The maximal fold induction (Indmax) and half concentration to reach Indmax (IndC50) were determined based on the following equation: Foldinduction=1+Indmax-1×Ct/IndC50+Ct where Ct is the test drug concentration.

[8] = target: T1, OAT3 (Homo sapiens, UniProt Q8TCC7); assay: In vitro OAT3 inhibition (internal data); type: cell-based
T1 sequence (Q8TCC7 1-542): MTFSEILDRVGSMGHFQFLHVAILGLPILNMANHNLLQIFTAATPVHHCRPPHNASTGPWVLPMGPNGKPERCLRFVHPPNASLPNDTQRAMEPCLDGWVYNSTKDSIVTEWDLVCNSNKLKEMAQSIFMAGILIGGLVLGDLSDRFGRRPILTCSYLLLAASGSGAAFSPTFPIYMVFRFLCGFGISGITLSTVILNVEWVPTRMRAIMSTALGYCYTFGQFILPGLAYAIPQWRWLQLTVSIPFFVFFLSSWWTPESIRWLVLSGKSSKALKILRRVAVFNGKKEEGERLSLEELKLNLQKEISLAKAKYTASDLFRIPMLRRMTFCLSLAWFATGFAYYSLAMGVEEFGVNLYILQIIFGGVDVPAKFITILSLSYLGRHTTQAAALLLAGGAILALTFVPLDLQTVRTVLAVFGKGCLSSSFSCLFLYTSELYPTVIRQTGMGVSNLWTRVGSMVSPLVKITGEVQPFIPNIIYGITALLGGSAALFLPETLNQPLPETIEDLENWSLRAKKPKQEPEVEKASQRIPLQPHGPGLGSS

[9] = tested on: CYP3A4; assay: in vitro; settings: human, freshly isolated, cultured human hepatocytes
Procedure: as §1, §2

[10] = Caco-2 passive permeability; type: in vitro ADME; settings: human, Caco-2, pH 6.5; internal data; read-out: Papp Caco-2 passive permeability (pH6.5:7.5)
From the text: Many of the physicochemical properties and plasma protein binding data were obtained internally and also referenced from FDA documents [9], which are available from the FDA website.

[11] = target: CYP3A4 (Homo sapiens, UniProt P08684); assay: In vitro CYP3A4 inhibition (internal data); type: biochemical
CYP3A4 (Homo sapiens, UniProt P08684), sequence (P08684 whole entry): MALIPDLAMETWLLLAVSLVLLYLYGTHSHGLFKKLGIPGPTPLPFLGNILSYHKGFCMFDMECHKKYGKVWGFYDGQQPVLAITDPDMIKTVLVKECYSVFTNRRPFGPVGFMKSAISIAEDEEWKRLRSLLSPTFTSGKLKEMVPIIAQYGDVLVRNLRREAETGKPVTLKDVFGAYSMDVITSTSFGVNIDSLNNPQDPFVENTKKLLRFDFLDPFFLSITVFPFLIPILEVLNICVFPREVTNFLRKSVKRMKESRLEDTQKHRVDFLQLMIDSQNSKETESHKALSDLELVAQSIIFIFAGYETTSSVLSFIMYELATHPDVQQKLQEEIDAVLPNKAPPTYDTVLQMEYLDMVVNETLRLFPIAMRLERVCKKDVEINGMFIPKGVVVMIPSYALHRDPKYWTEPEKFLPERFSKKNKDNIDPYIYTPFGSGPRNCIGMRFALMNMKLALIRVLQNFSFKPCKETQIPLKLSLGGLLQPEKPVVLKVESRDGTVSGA

[12] = parameters: method as in FDA CP review; settings: ref FDA CP review; cited from earlier work
[13] = once-daily oral 160 mg enzalutamide for 49 days; mean
[14] = tested on: P-gp; assay: P-gp mRNA induction in cultured human hepatocytes; type: cell-based; settings: 50 µmol/L
[15] = tested on: CYP1A2; settings: human, hepatocytes, 50 µmol/L
Procedure: as §1, §2

[16] = tested on: P-gp and CYP3A; settings: rivaroxaban; cited from earlier work
[17] = tested on: CYP3A and P-gp; parameters: method as in PMID 33030266; settings: assumed in model development, verified with clinical DDI studies; cited from earlier work
[18] = retrograde calculation from CLpo 0.60 L/h

CYP3A5, sequence (P20815 whole entry): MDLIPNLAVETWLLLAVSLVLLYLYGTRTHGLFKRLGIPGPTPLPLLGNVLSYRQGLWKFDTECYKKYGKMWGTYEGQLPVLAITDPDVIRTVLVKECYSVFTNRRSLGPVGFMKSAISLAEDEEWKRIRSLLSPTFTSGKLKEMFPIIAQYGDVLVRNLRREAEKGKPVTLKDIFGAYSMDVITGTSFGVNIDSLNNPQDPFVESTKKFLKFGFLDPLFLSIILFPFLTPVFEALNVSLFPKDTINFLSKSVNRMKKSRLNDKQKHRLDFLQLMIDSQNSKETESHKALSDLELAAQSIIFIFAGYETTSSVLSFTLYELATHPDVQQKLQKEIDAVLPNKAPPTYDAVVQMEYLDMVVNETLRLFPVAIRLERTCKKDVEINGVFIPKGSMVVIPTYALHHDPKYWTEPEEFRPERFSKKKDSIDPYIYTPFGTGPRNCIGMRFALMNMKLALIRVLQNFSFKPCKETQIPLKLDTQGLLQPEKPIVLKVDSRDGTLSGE

CNC(=O)c1ccc(N2C(=S)N(c3ccc(C#N)c(C(F)(F)F)c3)C(=O)C2(C)C)cc1F [Enzalutamide]
fu [1]: 0.0244 | pKi [2]: 4.38 | AUC [3]: 322 µg·h/mL | AUC(0-inf) [3]: 288 µg·h/mL | Tmax [3]: 0.75 h | half-life [3]: 77.7 h | Cmax ([3]; once-daily oral 160 mg enzalutamide for 49 days): 16600 ng/mL | Cmax ([3]; single oral 160 mg enzalutamide): 5660 ng/mL | pIC50 [4]: 5.78 | pKi [4]: 5.78 | Vss ([5]; PBPK model parameter): 0.967 L/kg | Estimated bioavailability based on mass balance data ([5]; oral): ≥ 84% | CYP3A4 CLint for M2 formation ([6]; PBPK model parameter, see text): 0.002312 mL/min/pmol enzyme | Peff,man ([6]; calculated from Caco-2 passive permeability calibrated to propranolol): 5.15 10^–4 cm/s | Contribution of CYP2C8 on enzalutamide elimination ([6]; estimated from clinical DDI study with gemfibrozil): 87% | CYP2C8 CLint for M2 formation [6, 18]: 0.1518 mL/min/pmol enzyme | CYP2C8 CLint for other pathway [6, 18]: 0.07475 mL/min/pmol enzyme | CYP3A4 CLint for other pathway [6, 18]: 0.003617 mL/min/pmol enzyme | Indmax on CYP3A4, calibrated [7]: 11.43 | pKi [8]: 4.82 | pEC50 [9]: 5.82 | Papp [10]: 31 ×10⁻⁶ cm/s | pKi [11]: 4.38 | Log P [12]: 2.98 | Cmin, observed [13]: 12000 ng/mL

COc1ccc2[nH]c([S+]([O-])Cc3ncc(C)c(OC)c3C)nc2c1 (centres unmarked) [Omeprazole, omeprazole, reference compound]
Fold increase P-gp mRNA [14]: 2.38 ± 1.68 fold | Fold increase CYP1A2 mRNA [15]: 46.4 ± 7.2 fold

O=C(NC[C@H]1CN(c2ccc(N3CCOCC3=O)cc2)C(=O)O1)c1ccc(Cl)s1 [Rivaroxaban, rivaroxaban]
Decrease in AUC by rifampicin [16]: 49% | Contribution of CYP3A to hepatic metabolism [17]: 61%
